Source: patent US5202315A, “Cephalosporin compounds” (Lucky, Ltd., priority 1989, dated 1993)
In brackets after ≈: the same amount, converted by molar mass.

Columns and labels:
Test in all cases: Antibacterial activity, MIC
Format in all cases: cell-based
[1] = test system: Pseudomonas aeruginosa ATCC 25619; conditions: ATCC25619, ATCC 25619, agar two-fold dilution, 37° C., 20 hours, read-out: MIC
Procedure, shortened: (§1)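 The compound is dispersed into Mueller-Hinton agar across a two-fold dilution series. Each strain is applied as 2 μl of a 10^7 CFU/ml suspension and grown 20 hours at 37 °C.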

[2] = test system: Proteus vulgaris ATCC 6059; conditions: ATCC6059, ATCC 6059, agar two-fold dilution, 37° C., 20 hours, read-out: MIC
Procedure, shortened: as §1

[3] = test system: Shigella sonnei ATCC 11060; conditions: ATCC11060, ATCC 11060, agar two-fold dilution, 37° C., 20 hours, read-out: MIC
Procedure, shortened: as §1

[4] = test system: Providencia rettgeri ATCC 9250; conditions: ATCC9250, agar two-fold dilution, 37° C., 20 hours
Procedure, shortened: as §1

[5] = test system: Staphylococcus aureus ATCC 6538p; conditions: ATCC6538P, ATCC 6538p, agar two-fold dilution, 37° C., 20 hours, read-out: MIC
Procedure, shortened: as §1

[6] = test system: Salmonella typhimurium ATCC 14028; conditions: Salmonella enterica; ATCC 14028; agar two-fold dilution, 37° C., 20 hours; read-out: MIC
Procedure, shortened: as §1

[7] = test system: Enterobacter aerogenes ATCC 29751; conditions: Klebsiella aerogenes, ATCC29751; ATCC 29751; agar two-fold dilution, 37° C., 20 hours; read-out: MIC
Procedure, shortened: as §1

[8] = test system: Escherichia coli ATCC 10536; conditions: ATCC10536, agar two-fold dilution, 37° C., 20 hours
Procedure, shortened: as §1

[9] = test system: Klebsiella pneumoniae ATCC 10031; conditions: ATCC10031, ATCC 10031, agar two-fold dilution, 37° C., 20 hours, read-out: MIC
Procedure, shortened: as §1

[10] = test system: Micrococcus luteus ATCC 9341; conditions: ATCC9341, ATCC 9341, agar two-fold dilution, 37° C., 20 hours, read-out: MIC
Procedure, shortened: as §1

[11] = test system: Proteus mirabilis ATCC 25933; conditions: ATCC25933, ATCC 25933, agar two-fold dilution, 37° C., 20 hours, read-out: MIC
Procedure, shortened: as §1

[12] = test system: Citrobacter freundii ATCC 8090; conditions: ATCC8090, ATCC 8090, agar two-fold dilution, 37° C., 20 hours, read-out: MIC
Procedure, shortened: as §1

[13] = test system: Morganella morganii ATCC 8076h; conditions: ATCC8076H, agar two-fold dilution, 37° C., 20 hours
Procedure, shortened: as §1

[14] = test system: Enterobacter cloacae ATCC 27508; conditions: ATCC27508, ATCC 27508, agar two-fold dilution, 37° C., 20 hours, read-out: MIC
Procedure, shortened: as §1

[15] = test system: Shigella flexneri ATCC 11836; conditions: ATCC11836, agar two-fold dilution, 37° C., 20 hours
Procedure, shortened: as §1

[16] = test system: Serratia marcescens ATCC 27117; conditions: ATCC27117, ATCC 27117, agar two-fold dilution, 37° C., 20 hours, read-out: MIC
Procedure, shortened: as §1

[17] = test system: Staphylococcus aureus ATCC 10537; conditions: ATCC10537, ATCC 10537, agar two-fold dilution, 37° C., 20 hours, read-out: MIC
Procedure, shortened: as §1

[18] = test system: Acinetobacter calcoaceticus ATCC 15473; conditions: ATCC15473, ATCC 15473, agar two-fold dilution, 37° C., 20 hours, read-out: MIC
Procedure, shortened: as §1

[19] = test system: Pseudomonas aeruginosa ATCC 10145; conditions: ATCC10145, ATCC 10145, agar two-fold dilution, 37° C., 20 hours, read-out: MIC
Procedure, shortened: as §1

[20] = test system: Pseudomonas aeruginosa ATCC 27853; conditions: ATCC27853, ATCC 27853, agar two-fold dilution, 37° C., 20 hours, read-out: MIC
Procedure, shortened: as §1

[21] = test system: Staphylococcus epidermidis ATCC 12228; conditions: ATCC12228, ATCC 12228, agar two-fold dilution, 37° C., 20 hours, read-out: MIC
Procedure, shortened: as §1

[22] = test system: Streptococcus faecalis ATCC 29212; conditions: Enterococcus faecalis, ATCC29212; ATCC 29212; agar two-fold dilution, 37° C., 20 hours; read-out: MIC
Procedure, shortened: as §1

[23] = test system: Bacillus megaterium ATCC 9885; conditions: Priestia megaterium, ATCC9885; ATCC 9885; agar two-fold dilution, 37° C., 20 hours; read-out: MIC
Procedure, shortened: as §1

[24] = test system: Escherichia coli ATCC 25922; conditions: ATCC25922, agar two-fold dilution, 37° C., 20 hours
Procedure, shortened: as §1

[25] = test system: Bacillus cereus ATCC 11778; conditions: ATCC11778, ATCC 11778, agar two-fold dilution, 37° C., 20 hours, read-out: MIC
Procedure, shortened: as §1

| SMILES | MIC [1] | MIC [2] | MIC [3] | MIC [4] | MIC [5] | MIC [6] | MIC [7] | MIC [8] | MIC [9] | MIC [10] | MIC [11] | MIC [12] | MIC [13] | MIC [14] | MIC [15] | MIC [16] | MIC [17] | MIC [18] | MIC [19] | MIC [20] | other results |
| --- | --- | --- | --- | --- | --- | --- | --- | --- | --- | --- | --- | --- | --- | --- | --- | --- | --- | --- | --- | --- | --- |
| CCCC[n+]1c(N)cc(N)nc1SCC1=C(C(=O)[O-])N2C(=O)C(NC(=O)/C(=N\OC(C)(C)C(=O)O)c3nsc(N)n3)C2SC1 (stereo not shown) [Compound I-29] | 4 µg/mL (≈ 6 µM) | 1 µg/mL (≈ 1.5 µM) | 0.5 µg/mL (≈ 0.75 µM) | ≤ 0.008 µg/mL | 8 µg/mL (≈ 12 µM) | 0.5 µg/mL (≈ 0.75 µM) | 1 µg/mL (≈ 1.5 µM) | 0.25 µg/mL (≈ 0.375 µM) | 0.13 µg/mL (≈ 0.195 µM) | 0.5 µg/mL (≈ 0.75 µM) | 1 µg/mL (≈ 1.5 µM) | 0.25 µg/mL (≈ 0.375 µM) | 0.016 µg/mL (≈ 0.024 µM) | 0.063 µg/mL (≈ 0.0945 µM) | 0.13 µg/mL (≈ 0.195 µM) | 0.5 µg/mL (≈ 0.75 µM) | 4 µg/mL (≈ 6 µM) | 32 µg/mL (≈ 48 µM) | 8 µg/mL (≈ 12 µM) | 2 µg/mL (≈ 3 µM) | MIC [21]: 8 µg/mL (≈ 12 µM); MIC [22]: > 128 µg/mL; MIC [23]: 0.25 µg/mL (≈ 0.375 µM); MIC [24]: 0.25 µg/mL (≈ 0.375 µM); MIC [25]: 128 µg/mL (≈ 192 µM) |
| CC(C)(O/N=C(\C(=O)NC1C(=O)N2C(C(=O)[O-])=C(CSc3nc(N)cc(N)[n+]3-c3ccccc3)CSC12)c1csc(N)n1)C(=O)O (stereo not shown) [Compound I-35] | 2 µg/mL (≈ 2.92 µM) | 0.13 µg/mL (≈ 0.19 µM) | 0.25 µg/mL (≈ 0.365 µM) | 0.031 µg/mL (≈ 0.0452 µM) | 4 µg/mL (≈ 5.83 µM) | 0.5 µg/mL (≈ 0.729 µM) | 0.5 µg/mL (≈ 0.729 µM) | 0.25 µg/mL (≈ 0.365 µM) | 0.13 µg/mL (≈ 0.19 µM) | 0.25 µg/mL (≈ 0.365 µM) | 0.25 µg/mL (≈ 0.365 µM) | 0.25 µg/mL (≈ 0.365 µM) | ≤ 0.008 µg/mL | 0.063 µg/mL (≈ 0.0919 µM) | 0.13 µg/mL (≈ 0.19 µM) | 0.5 µg/mL (≈ 0.729 µM) | 2 µg/mL (≈ 2.92 µM) | 16 µg/mL (≈ 23.3 µM) | 4 µg/mL (≈ 5.83 µM) | 2 µg/mL (≈ 2.92 µM) | MIC [21]: 2 µg/mL (≈ 2.92 µM); MIC [22]: > 128 µg/mL; MIC [23]: 0.5 µg/mL (≈ 0.729 µM); MIC [24]: 0.25 µg/mL (≈ 0.365 µM); MIC [25]: 16 µg/mL (≈ 23.3 µM) |
| CC(C)(O/N=C(\C(=O)NC1C(=O)N2C(C(=O)[O-])=C(CSc3nc(N)cc(N)[n+]3-c3ccc(O)cc3)CSC12)c1csc(N)n1)C(=O)O (stereo not shown) [Compound I-36] | 1 µg/mL (≈ 1.42 µM) | 0.13 µg/mL (≈ 0.185 µM) | 0.25 µg/mL (≈ 0.356 µM) | ≤ 0.008 µg/mL | 4 µg/mL (≈ 5.7 µM) | 0.5 µg/mL (≈ 0.712 µM) | 2 µg/mL (≈ 2.85 µM) | 0.25 µg/mL (≈ 0.356 µM) | 0.13 µg/mL (≈ 0.185 µM) | 0.25 µg/mL (≈ 0.356 µM) | 0.13 µg/mL (≈ 0.185 µM) | 0.25 µg/mL (≈ 0.356 µM) | ≤ 0.008 µg/mL | 0.063 µg/mL (≈ 0.0898 µM) | 0.063 µg/mL (≈ 0.0898 µM) | 0.5 µg/mL (≈ 0.712 µM) | 2 µg/mL (≈ 2.85 µM) | 16 µg/mL (≈ 22.8 µM) | 2 µg/mL (≈ 2.85 µM) | 1 µg/mL (≈ 1.42 µM) | MIC [21]: 2 µg/mL (≈ 2.85 µM); MIC [22]: > 128 µg/mL; MIC [23]: 0.13 µg/mL (≈ 0.185 µM); MIC [24]: 0.25 µg/mL (≈ 0.356 µM); MIC [25]: 32 µg/mL (≈ 45.6 µM) |
| CCO/N=C(\C(=O)NC1C(=O)N2C(C(=O)[O-])=C(CSc3nc(N)cc(N)[n+]3-c3ccc(Cl)cc3)CSC12)c1csc(N)n1 (stereo not shown) [Compound I-40] | 2 µg/mL (≈ 3.02 µM) | 0.5 µg/mL (≈ 0.755 µM) | 0.5 µg/mL (≈ 0.755 µM) | ≤ 0.008 µg/mL | 0.5 µg/mL (≈ 0.755 µM) | 2 µg/mL (≈ 3.02 µM) | 2 µg/mL (≈ 3.02 µM) | 0.5 µg/mL (≈ 0.755 µM) | 0.031 µg/mL (≈ 0.0468 µM) | 0.016 µg/mL (≈ 0.0242 µM) | 0.5 µg/mL (≈ 0.755 µM) | 1 µg/mL (≈ 1.51 µM) | 0.016 µg/mL (≈ 0.0242 µM) | 0.13 µg/mL (≈ 0.196 µM) | 0.25 µg/mL (≈ 0.378 µM) | 1 µg/mL (≈ 1.51 µM) | 0.25 µg/mL (≈ 0.378 µM) | 16 µg/mL (≈ 24.2 µM) | 16 µg/mL (≈ 24.2 µM) | 8 µg/mL (≈ 12.1 µM) | MIC [21]: 0.13 µg/mL (≈ 0.196 µM); MIC [22]: 32 µg/mL (≈ 48.3 µM); MIC [23]: 0.063 µg/mL (≈ 0.0951 µM); MIC [24]: 0.5 µg/mL (≈ 0.755 µM); MIC [25]: 16 µg/mL (≈ 24.2 µM) |
